# Source: patent US20110311532A1, “INHIBITION OF COMPLEMENT AND CELLULAR ACTIVATION” (priority 2007, published 2011)
# Positions of bridges follow the written chain, without caps; N, C: chain ends. Non-standard residues stand in square brackets, D forms with d. Residues, ends and D or L forms follow the SMILES beside them. hArg = N=C(N)NCCCC[C@H](N)C(=O)O; Mpa = O=C(O)CCS
# B1: Abciximab (antibody, chains of the INN, looked up, V domains shown)
# VH: EVQLQQSGTVLARPGASVKMSCEASGYTFTNYWMHWVKQRPGQGLEWIGAIYPGNSDTSYIQKFKGKAKLTAVTSTTSVYMELSSLTNEDSAVYYCTLYDGYYVFAYWGQGTLVTVSA
# VL: EIVLTQSPVTLSVTPGDSVSLSCRASRDISNNLHWFQQTSHESPRLLIKYASQSMSGIPSRFSGSGSGTDFTLSINSVETEDFGMYFCQQTNSWPYTFGGGTKLEIK
# modifications: Fab
# notes: monoclonal F(ab) fragment GPIIb/IIIa antagonist
# How the values were obtained:
# neutrophils = experiment: Tubing loop model, neutrophil activation by flow cytometry (CD15/CD11b); type: cell-based, human; conditions: anti-platelet agent in combination with NM4047
# Method: (§1) In the following examples, heparinized whole blood from a donor volunteer was circulated in a PVC tubing at 37° C. to allow complement and cellular activation. It is known that alternative complement pathway is activated when blood comes in contact with the artificial surface of the PVC tubing. As a result, complement is activated to release inflammatory molecules. These inflammatory molecules activate neutrophils, monocytes and platelets. The monoclonal antibody NM4047, inhibits complement activation in vitro in human serum. NM4047 inhibits C3a, C5a, and C5b-9 in whole blood in the tubing loop model. […] We attributed these findings to the Fc region on the IgG1. Removal of Fc domain with Ficin generated an F(ab′)2 molecule which inhibited C3a, C5a, C5b-9.
# (§2) NM4047 is an IgG1 monoclonal antibody that was identified as a blocker of alternative complement pathway activation. The monoclonal antibody was evaluated for inhibition of complement and cellular activation in a whole blood based extracorporeal circulation model. In this model, whole heparinzed human blood was diluted with plasmalyte and circulated in a PVC tubing loop for 2 h at 37° C. to allow complement activation to occur. A total of 21 tubing loops were prepared. […] Nine tubing loops received 400 μg/ml concentration of NM4047 and the other nine received 100 μg/ml concentration of NM4047. Tubing loops were then rotated for 2 h at 37° C. Following the rotation, aliquots of the blood were stained for flow cytometry for the evaluation of cellular activation. A separate aliquot of blood was centrifuged to separate plasma, which was used for measuring complement activation products in ELISA. […] Cellular activation was evaluated using flow cytometry methods. […] Cell populations were read in the BD-LSR 1 and Cell Quest software. The raw data taken from Cell Quest were analyzed using Win List software from Verity, populations were measured using Ln Median shifts in the activation marker in the case of neutrophils and monocytes, and population percentage shifts for platelets. […]
# monocytes = experiment: Tubing loop model, monocyte activation by flow cytometry (CD14/CD11b); type: cell-based, human; conditions: anti-platelet agent in combination with NM4047
# Method: as §1, §2
# platelets = experiment: Tubing loop model, platelet activation by flow cytometry (CD61/CD62P); type: cell-based, human; conditions: for effect on Fc mediated platelet activation (CD62P): anti-platelet agent at various concentrations with 400 μg/ml NM4047
# Method: as §1
# NM4047 is an IgG1 monoclonal antibody that was identified as a blocker of alternative complement pathway activation. The monoclonal antibody was evaluated for inhibition of complement and cellular activation in a whole blood based extracorporeal circulation model. In this model, whole heparinzed human blood was diluted with plasmalyte and circulated in a PVC tubing loop for 2 h at 37° C. to allow complement activation to occur. A total of 21 tubing loops were prepared. […] Nine tubing loops received 400 μg/ml concentration of NM4047 and the other nine received 100 μg/ml concentration of NM4047. Tubing loops were then rotated for 2 h at 37° C. Following the rotation, aliquots of the blood were stained for flow cytometry for the evaluation of cellular activation. A separate aliquot of blood was centrifuged to separate plasma, which was used for measuring complement activation products in ELISA. […] However, activation of neutrophils, monocytes, and platelets was not inhibited. Cellular activation was evaluated using flow cytometry methods. Aliquots of blood sample were stained with FITC labeled CD15 for neutrophils, FITC labeled CD14 for monocytes, and FITC labeled CD61 for Platelets. The cells were also stained with activation markers PE labeled CD11b for neutrophils and monocytes, and PE labeled CD62P for platelets. The staining was done in three groups, one group containing CD15/CD11b, second group contained CD14/CD11b, and the third group contained CD61/CD62P antibodies. Following staining, the cells were lysed with lysis buffer, centrifuged to pellet the cells. After a quick wash with 1% BSA/PBS, the cells were suspended in 1% paraformaldehyde buffer. Cell populations were read in the BD-LSR 1 and Cell Quest software. The raw data taken from Cell Quest were analyzed using Win List software from Verity, populations were measured using Ln Median shifts in the activation marker in the case of neutrophils and monocytes, and population percentage shifts for platelets. The data was then plotted on MicroCal Origin software. […] The lack of cellular inhibition could only be explained by the fact that the IgG1 had the Fc region. To determine if the predicted Fc is the cause of the observed cellular activation, IgG1 was digested with Ficin protease.
# NM4047 (IgG1) monoclonal antibody was evaluated for inhibition of complement and cellular activation in a whole blood based extracorporeal circulation model in the presence of ReoPro. ReoPro is a GPIIbIIIa monoclonal antibody that binds resting and activated platelets. In this experiment, heparinzed human blood was diluted with plasmalyte and circulated in a PVC tubing loop for 2 h at 37° C. to allow complement activation to occur. A total of 21 tubing loops were prepared. […] Nine tubing loops received 400 μg/ml concentration of NM4047 and the other nine received 100 μg/ml concentration of NM4047. All samples other than controls received 10 μg/ml of ReoPro (clinical material). All tubing loops were then rotated for 2 h at 37° C. Following the rotation, aliquots of the blood were stained for flow cytometry for the evaluation of cellular activation. […]
# complement activation = experiment: Tubing loop model, overall complement activation or inhibition; type: biochemical, human; conditions: anti-platelet agent in combination with NM4047
# Method: as §2, with “activation.” for “activation. A separate aliquot of blood was centrifuged to separate plasma, which was used for measuring complement activation products in ELISA.”
# NM4047 (IgG1) monoclonal antibody was evaluated for inhibition of complement and cellular activation in a whole blood based extracorporeal circulation model in the presence of ReoPro. […] Cellular activation was evaluated using flow cytometry methods. […]
# erythrocytes = experiment: Hemolysis of erythrocytes in tubing loop experiments; type: cell-based, human; conditions: high concentration doses; tested at 5-50 μg/ml
# Description: In this example, we evaluated the effects of Aspirin a commonly used inhibitor of platelet activation. Aspirin is also used as a standard of care for cardiac procedures. […] The tubing loop experiments presented in various examples above remained the same. The only difference was in the type of test agent used across these experiments. While good results were noticed with ReoPro and Aggrastat, the cost of such drugs may be prohibitive. In such cases, aspirin may become a viable option.
Molecule,effect on neutrophil activation (neutrophils),effect on monocyte activation (monocytes),effect on Fc mediated platelet activation (CD62P) (platelets),effect on level of complement inhibition by NM4047 (complement activation),hemolysis of erythrocytes (erythrocytes),total platelet activation (platelets; Integrillin 100 μg/ml with 400 μg/ml NM4047),"concentration achieving complete inhibition of platelet activation (platelets; with 400 μg/ml NM4047, 1 to 20 μg/ml tested)",inhibition of platelet activation (platelets; ReoPro 10 μg/ml with NM4047 400 or 100 μg/ml),platelet activation in samples containing IgG2 antibody (platelets; ReoPro together with IgG2 antibody),concentration at which effect on platelet inhibition starts to vanish (platelets; with 400 μg/ml NM4047)
CC(=O)Oc1ccccc1C(=O)O [Aspirin],only partial effect,only partial effect,inhibits,did not alter,caused hemolysis,,,,,
"N=C(N)NCCCC[C@@H]1NC(=O)CCSSC[C@@H](C(N)=O)NC(=O)[C@@H]2CCCN2C(=O)[C@H](Cc2c[nH]c3ccccc23)NC(=O)[C@H](CC(=O)O)NC(=O)CNC1=O [Integrillin, Eptifibatide] ([Mpa][hArg]GDWPC-NH2; disulfide 1-7)",,,does not inhibit,,,at least 4 fold,,,,
"CCCCS(=O)(=O)N[C@@H](Cc1ccc(OCCCCC2CCNCC2)cc1)C(=O)O [Aggrastat, Tirofiban]",no effect,no effect,highly potent,,,,1 µg/mL,,,
B1,does not inhibit,does not inhibit,dose dependent,did not affect,,,,~100%,inhibited,0.5 µg/mL
